Values quoted from earlier work in US20060024236A1, “Bowel preparation for virtual colonoscopy” (priority 2004, published 2006).

How the values were obtained:
[1] = compared with PEG, cleansing before CC, meta-analysis of trials
[2] = compared with PEG

## O=P(O)(O)O [NaP, sodium phosphate]
[1]
  efficacy of colonic cleansing: more efficacious
  tolerability of oral cleansing agent: better tolerated
[2]
  residual colonic fluid at VC: significantly less residual colonic fluid

## O=S(=O)([O-])[O-].[Ba+2] [barium sulfate]
oral
  opacification of residual colonic fluid: does not adequately opacify
oral, given as part of the colon prep
  tagging of residual fecal material to distinguish it from true colonic polyps: effective
Orally administered
  interference with subsequent CC examination: does not interfere
